# Measured values from ChEMBL document CHEMBL3112450, “Synthesis and in vitro antitumor evaluation of primary amine substituted quinazoline linked benzimidazole” (Bioorg Med Chem Lett, 2014).
# Legend:
# Format in all cases: functional
# HOP-92 = experiment: Cytotoxicity against human HOP92 cells assessed as growth inhibition at 10 uM after 48 hrs by SRB assay; settings: HOP-92, 48 h, read-out: GI
# CCRF-CEM = experiment: Cytotoxicity against human CCRF-CEM cells assessed as cell growth at 10^-6 M after 48 hrs by SRB assay; settings: read-out: Activity
# SNB-19 = experiment: Cytotoxicity against human SNB19 cells after 48 hrs by SRB assay; settings: SNB-19, 48 h
# M14 [1] = experiment: Cytotoxicity against human M14 cells assessed as cell growth at 10^-6 M after 48 hrs by SRB assay; settings: M14, 48 h, read-out: Activity
# U-251 [2] = experiment: Cytotoxicity against human U251 cells assessed as cell growth at 10^-4 M after 48 hrs by SRB assay; settings: U-251, 48 h, read-out: Activity
# MDA-MB-435 [3] = experiment: Cytotoxicity against human MDA-MB-435 cells assessed as cell growth at 10^-7 M after 48 hrs by SRB assay; settings: MDA-MB-435, 48 h, read-out: Activity
# SK-OV-3 [4] = experiment: Cytotoxicity against human SKOV3 cells assessed as cell growth at 10^-8 M after 48 hrs by SRB assay; settings: SK-OV-3, 48 h, read-out: Activity
# CAKI-1 [5] = experiment: Cytotoxicity against human Caki1 cells assessed as cell growth at 10^-8 M after 48 hrs by SRB assay; settings: CAKI-1, 48 h, read-out: Activity
# PC-3 [6] = experiment: Cytotoxicity against human PC3 cells assessed as cell growth at 10^-4 M after 48 hrs by SRB assay; settings: PC-3, 48 h, read-out: Activity
# MDA-MB-435 [7] = experiment: Cytotoxicity against human MDA-MB-435 cells assessed as cell growth at 10^-6 M after 48 hrs by SRB assay; settings: MDA-MB-435, 48 h, read-out: Activity
# HT-29 = experiment: Cytotoxicity against human HT-29 cells assessed as cell growth at 10^-7 M after 48 hrs by SRB assay; settings: HT-29, 48 h, read-out: Activity
# MOLT-4 = experiment: Cytotoxicity against human MOLT4 cells assessed as cell growth at 10^-4 M after 48 hrs by SRB assay; settings: MOLT-4, 48 h, read-out: Activity
# LOX IMVI [8] = experiment: Cytotoxicity against human LOXIMVI cells after 48 hrs by SRB assay
# CAKI-1 [9] = experiment: Cytotoxicity against human Caki1 cells assessed as cell growth at 10^-7 M after 48 hrs by SRB assay; settings: CAKI-1, 48 h, read-out: Activity
# UACC-62 [10] = experiment: Cytotoxicity against human UACC62 cells assessed as cell growth at 10^-4 M after 48 hrs by SRB assay; settings: UACC-62, 48 h, read-out: Activity
# M14 [11] = experiment: Cytotoxicity against human M14 cells after 48 hrs by SRB assay; settings: M14, 48 h
# MDA-MB-231 = experiment: Cytotoxicity against human MDA-MB-231 cells after 48 hrs by SRB assay; settings: MDA-MB-231, 48 h
# SW-620 = experiment: Cytotoxicity against human SW620 cells assessed as cell growth at 10^-8 M after 48 hrs by SRB assay; settings: SW-620, 48 h, read-out: Activity
# SF-268 [12] = experiment: Cytotoxicity against human SF268 cells assessed as cell growth at 10^-4 M after 48 hrs by SRB assay; settings: SF-268, 48 h, read-out: Activity
# NCI-H322M = experiment: Cytotoxicity against human NCI-H322M cells assessed as cell growth at 10^-4 M after 48 hrs by SRB assay; settings: read-out: Activity
# HCC 2998 [13] = experiment: Cytotoxicity against human HCC2998 cells assessed as cell growth at 10^-7 M after 48 hrs by SRB assay; settings: HCC 2998, 48 h, read-out: Activity
# OVCAR-8 [14] = experiment: Cytotoxicity against human OVCAR8 cells after 48 hrs by SRB assay; settings: OVCAR-8, 48 h
# SK-OV-3 [15] = experiment: Cytotoxicity against human SKOV3 cells assessed as cell growth at 10^-7 M after 48 hrs by SRB assay; settings: SK-OV-3, 48 h, read-out: Activity
# MDA-MB-468 = experiment: Cytotoxicity against human MDA-MB-468 cells after 48 hrs by SRB assay; settings: MDA-MB-468, 48 h
# [16] = Cytotoxicity against human OVCAR5 cells assessed as cell growth at 10^-6 M after 48 hrs by SRB assay; settings: OVCAR-5, 48 h, read-out: Activity
# HCC 2998 [17] = experiment: Cytotoxicity against human HCC2998 cells after 48 hrs by SRB assay; settings: HCC 2998, 48 h
# COLO 205 = experiment: Cytotoxicity against human COLO205 cells assessed as cell growth at 10^-4 M after 48 hrs by SRB assay; settings: COLO 205, 48 h, read-out: Activity
# A498 [18] = experiment: Cytotoxicity against human A498 cells assessed as cell growth at 10^-7 M after 48 hrs by SRB assay; settings: A498, 48 h, read-out: Activity
# SN12C = experiment: Cytotoxicity against human SN12C cells assessed as cell growth at 10^-6 M after 48 hrs by SRB assay; settings: read-out: Activity
# SF-539 = experiment: Cytotoxicity against human SF539 cells assessed as cell growth at 10^-7 M after 48 hrs by SRB assay; settings: SF-539, 48 h, read-out: Activity
# MCF7 = experiment: Cytotoxicity against human MCF7 cells assessed as cell growth at 10^-7 M after 48 hrs by SRB assay; settings: MCF7, 48 h, read-out: Activity
# SF-268 [19] = experiment: Cytotoxicity against human SF268 cells after 48 hrs by SRB assay; settings: SF-268, 48 h
# NCI-H522 = experiment: Cytotoxicity against human NCI-H522 cells assessed as cell growth at 10^-7 M after 48 hrs by SRB assay; settings: NCI-H522, 48 h, read-out: Activity
# UACC-62 [20] = experiment: Cytotoxicity against human UACC62 cells assessed as cell growth at 10^-7 M after 48 hrs by SRB assay; settings: UACC-62, 48 h, read-out: Activity
# PC-3 [21] = experiment: Cytotoxicity against human PC3 cells after 48 hrs by SRB assay; settings: PC-3, 48 h
# U-251 [22] = experiment: Cytotoxicity against human U251 cells assessed as cell growth at 10^-7 M after 48 hrs by SRB assay; settings: U-251, 48 h, read-out: Activity
# A498 [23] = experiment: Cytotoxicity against human A498 cells assessed as cell growth at 10^-4 M after 48 hrs by SRB assay; settings: A498, 48 h, read-out: Activity
# LOX IMVI [24] = experiment: Cytotoxicity against human LOXIMVI cells assessed as cell growth at 10^-4 M after 48 hrs by SRB assay; settings: read-out: Activity
# OVCAR-8 [25] = experiment: Cytotoxicity against human OVCAR8 cells assessed as growth inhibition at 10 uM after 48 hrs by SRB assay; settings: OVCAR-8, 48 h, read-out: GI
compound,measurement,setting,value
C=CCn1c(C)nc2ccc(Nc3nc(NCCO)nc4ccccc34)cc21,inhibition of growth at 10 µM,HOP-92,30%
C=CCn1c(C)nc2ccc(Nc3nc(Nc4ccc5nc(C)n(CC=C)c5c4)c4ccccc4n3)cc21,growth at 1 µM,CCRF-CEM,82%
same,GI50,SNB-19,1690 nM
same,TGI,SNB-19,3560 nM
same,growth at 1 µM,M14 [1],88%
same,growth at 100 µM,U-251 [2],-22%
same,inhibition of growth at 10 µM,HOP-92,50%
same,growth at 0.1 µM,MDA-MB-435 [3],98%
same,growth at 0.01 µM,SK-OV-3 [4],97%
same,growth at 0.01 µM,CAKI-1 [5],93%
same,growth at 100 µM,PC-3 [6],-46%
same,growth at 1 µM,MDA-MB-435 [7],92%
same,growth at 0.1 µM,HT-29,101%
same,growth at 100 µM,MOLT-4,2%
same,GI50,LOX IMVI [8],1550 nM
same,growth at 0.1 µM,CAKI-1 [9],90%
same,growth at 100 µM,UACC-62 [10],-65%
same,GI50,M14 [11],1620 nM
same,TGI,M14 [11],3040 nM
same,GI50,MDA-MB-231,1340 nM
same,LC50,MDA-MB-231,5120 nM
same,TGI,MDA-MB-231,2620 nM
same,growth at 0.01 µM,SW-620,98%
same,growth at 100 µM,SF-268 [12],-33%
same,growth at 100 µM,NCI-H322M,-58%
same,growth at 0.1 µM,HCC 2998 [13],101%
same,GI50,OVCAR-8 [14],1560 nM
same,TGI,OVCAR-8 [14],3250 nM
same,growth at 0.1 µM,SK-OV-3 [15],95%
same,GI50,MDA-MB-468,1220 nM
same,TGI,MDA-MB-468,2480 nM
same,growth at 1 µM,[16],94%
same,GI50,HCC 2998 [17],1720 nM
same,LC50 (50% lethal concentration),HCC 2998 [17],5560 nM
same,TGI,HCC 2998 [17],3090 nM
same,growth at 100 µM,COLO 205,-18%
same,growth at 0.1 µM,A498 [18],64%
same,growth at 1 µM,SN12C,90%
same,growth at 0.1 µM,SF-539,94%
same,growth at 0.1 µM,MCF7,91%
same,GI50,SF-268 [19],1540 nM
same,TGI,SF-268 [19],3220 nM
same,growth at 0.1 µM,NCI-H522,91%
same,growth at 0.1 µM,UACC-62 [20],94%
same,GI50,PC-3 [21],1370 nM
same,TGI,PC-3 [21],2900 nM
same,growth at 0.1 µM,U-251 [22],94%
same,growth at 100 µM,A498 [23],-21%
same,growth at 100 µM,LOX IMVI [24],7%
C=CCn1c(C)nc2cc(Nc3nc(Nc4ccc5nc(C)n(CC=C)c5c4)c4ccccc4n3)ccc21,growth at 1 µM,CCRF-CEM,-14%
same,GI50,SNB-19,1080 nM
same,TGI,SNB-19,2620 nM
same,growth at 1 µM,M14 [1],72%
same,growth at 100 µM,U-251 [2],-31%
same,growth at 0.1 µM,MDA-MB-435 [3],97%
same,growth at 0.01 µM,SK-OV-3 [4],95%
same,growth at 0.01 µM,CAKI-1 [5],94%
same,growth at 100 µM,PC-3 [6],-41%
same,growth at 1 µM,MDA-MB-435 [7],32%
same,growth at 0.1 µM,HT-29,103%
same,growth at 100 µM,MOLT-4,-18%
same,GI50,LOX IMVI [8],180 nM
same,LC50,LOX IMVI [8],640 nM
same,TGI,LOX IMVI [8],339 nM
same,growth at 0.1 µM,CAKI-1 [9],97%
same,growth at 100 µM,UACC-62 [10],-47%
same,GI50,M14 [11],1430 nM
same,TGI,M14 [11],3240 nM
same,GI50,MDA-MB-231,205 nM
same,TGI,MDA-MB-231,417 nM
same,growth at 0.01 µM,SW-620,97%
same,growth at 100 µM,SF-268 [12],-82%
same,growth at 100 µM,NCI-H322M,-70%
same,growth at 0.1 µM,HCC 2998 [13],100%
same,GI50,OVCAR-8 [14],284 nM
same,LC50,OVCAR-8 [14],> 100000 nM
same,growth at 0.1 µM,SK-OV-3 [15],106%
same,GI50,MDA-MB-468,216 nM
same,LC50 (concentration killing 50% of cells),MDA-MB-468,> 100000 nM
same,TGI,MDA-MB-468,578 nM
same,growth at 1 µM,[16],20%
same,GI50,HCC 2998 [17],1200 nM
same,LC50 (50% lethal concentration),HCC 2998 [17],5030 nM
same,TGI,HCC 2998 [17],2450 nM
same,growth at 100 µM,COLO 205,-6%
same,growth at 0.1 µM,A498 [18],100%
same,growth at 1 µM,SN12C,65%
same,growth at 0.1 µM,SF-539,101%
same,growth at 0.1 µM,MCF7,103%
same,GI50,SF-268 [19],1040 nM
same,LC50 (50% lethal concentration),SF-268 [19],4730 nM
same,TGI,SF-268 [19],2210 nM
same,growth at 0.1 µM,NCI-H522,90%
same,growth at 0.1 µM,UACC-62 [20],98%
same,GI50,PC-3 [21],305 nM
same,TGI,PC-3 [21],1020 nM
same,growth at 0.1 µM,U-251 [22],95%
same,growth at 100 µM,A498 [23],-85%
same,growth at 100 µM,LOX IMVI [24],-71%
C=CCn1c(C)nc2cc(Nc3nc(NCCO)nc4ccccc34)ccc21,inhibition of growth at 10 µM,HOP-92,40%
same,inhibition of growth at 10 µM,OVCAR-8 [25],30%
